Experiments:
[1] = Sublimation of additive from PMMA film on hotplate heating (absorption spectra); format: physicochemical
Protocol: The same procedure was repeated for heating at 110° C., 130° C. and 160° C. The spectra taken each time were compared and the possible sublimation of the additive after the different thermal treatment procedures was calculated.
The following explanations apply to all tables. […] SUBL=temperature of sublimation.

[2] = UV absorbance of PMMA films loaded with additive; format: physicochemical; conditions: additive 7.5% w/w of PMMA
Protocol: A quantity of a polyaromatic compound (i.e.compound (XI), Table 9), was added in part of this solution at a 7.5% w/w of the polymer concentration.
The solution was stirred at room temperature for a few hours and the polyaromatic compound was dissolved. Then, a small amount of the solution was used to spin coat a film on quartz substrate at 4000 rpm for 30 sec. The thickness of this film was measured by a profilometer and found 12250 Å. The absorption spectrum of the film was taken at vertical incidence.
The same procedure was repeated, using the initial PMMA solution this time. A new film was spun and its thickness was found 13000 Å. […]

[3] = Solubility of additive in the solvents used (PGMEA, MIBK)
Protocol: It is important that the selected additive is soluble in the solvents commonly used in the microlithography process. […] After film formation the amount of the additive sublimed during the baking cycles was tested. Evaluation of spectroscopic and etch resistance enhancement followed.
SOL=solubility at the solvents used (##=very bad, #=bad, *=good, **=very good). SUBL=temperature of sublimation.

[4] = UV absorbance of PMMA films loaded with additive; format: physicochemical; conditions: additive 5% w/w of PMMA; value includes PMMA absorbance (higher by 0.07)

Structure (SMILES) | SUBL (temperature of sublimation) ([1]; additive 7.5% w/w in PMMA film) [°C] | UV 193 nm (absorbance) [2] | UV 248 nm (absorbance) [2] | solubility (in words) [3] | SUBL (temperature of sublimation) ([1]; additive 5% w/w in PMMA film) [°C] | UV 193 nm (absorbance) [4]
O=C(OCC(COC(=O)C12CC3CC(CC(C3)C1)C2)Cc1c2ccccc2cc2ccccc12)C12CC3CC(CC(C3)C1)C2 (stereo not drawn) [Compound XIII, Mixed anthryl ester] | 160 | 0.17 /0.5 μm | 0.45 /0.5 μm | – | – | –
c1ccc2c(CNCc3c4ccccc4cc4ccccc34)c3ccccc3cc2c1 [IV, N,N-Di-(9-anthrylmethyl)-amine] | 160 | 0.22 /0.5 μm | 0.31 /0.5 μm | – | – | –
CC(=O)C1CCC2C3CC=C4CC(OC(=O)c5c6ccccc6cc6ccccc56)CCC4(C)C3CCC12C (stereo not drawn) [Compound XIV, 5-pregnen-3β-yl-(9-anthryl-methylate)-20-one] | 160 | 0.20 /0.5 μm | 0.52 /0.5 μm | – | – | –
O=C(O)CCC(=O)OC(Cc1c2ccccc2cc2ccccc12)Cc1c2ccccc2cc2ccccc12 [II, 1,3-di-(9-anthryl2-propyl hydrogen succinate] | 160 | 0.33 /0.5 μm | 1.25 /0.5 μm | improved solubility | – | –
c1ccc2c(CNC3CCCCC3NCc3c4ccccc4cc4ccccc34)c3ccccc3cc2c1 (stereo not drawn) [VIII, trans-1,2-Di-(9-aminomethyl-anthryl)-cyclohexane] | – | – | – | improved solubility | – | –
O=C(O)c1c2ccccc2cc2ccccc12 [9-anthracene carboxylic acid] | – | – | – | – | 110 | 0.46 /0.5 μm
Nc1ccc2cc3ccccc3cc2c1 [2-aminoanthracene] | – | – | – | – | 110 | 0.51 /0.5 μm
OC(Cc1c2ccccc2cc2ccccc12)Cc1c2ccccc2cc2ccccc12 [I] | 160 | 0.16 /0.5 μm | 0.48 /0.5 μm | improved solubility | – | –
O=C(OCc1c2ccccc2cc2ccccc12)C12CC3CC(CC(C3)C1)C2 [XI, 1-adamantyl 9-anthrylmethylate] | 160 | 0.05 /0.5 μm | 0.36 /0.5 μm | very good solubility | – | –
O=C(OCc1c2ccccc2cc2ccccc12)c1c2ccccc2cc2ccccc12 [VII] | 160 | 0.35 /0.5 μm | 1.16 /0.5 μm | not satisfactory | – | –
OCc1c2ccccc2cc2ccccc12 [9-anthracene methanol] | – | – | – | – | 110 | 0.43 /0.5 μm
O=C(OCCOc1c2ccccc2cc2ccccc12)OCCOc1c2ccccc2cc2ccccc12 [VI, Di-2-(9-anthryloxy)-ethyl carbonate] | 130 | 0.24 /0.5 μm | 1.04 /0.5 μm | – | – | –
O=C(CCC(=O)OC(Cc1c2ccccc2cc2ccccc12)Cc1c2ccccc2cc2ccccc12)OCC(COC(=O)CCC(=O)OC(Cc1c2ccccc2cc2ccccc12)Cc1c2ccccc2cc2ccccc12)Cc1c2ccccc2cc2ccccc12 [X, Penta-anthryl ester] | 160 | 0.33 /0.5 μm | 0.75 /0.5 μm | decreased solubility | – | –
c1ccc2cc3ccccc3cc2c1 [anthracene] | – | – | – | – | 110 | 0.38 /0.5 μm
O=C(CCC(=O)OC(Cc1c2ccccc2cc2ccccc12)Cc1c2ccccc2cc2ccccc12)OCc1c2ccccc2cc2ccccc12 [IX, 1,3-Di-(9-anthryl)-2-propyl 9-anthrylmethyl Succinate] | 160 | 1.41 /0.5 μm | 1.74 /0.5 μm | decreased solubility | – | –

Reference: US20050026068A1, “Polycarbocyclic derivatives for modification of resist, optical and etch resistance properties” (priority 2001, published 2005)
